For 21 compounds, Ki results are on record in patent publication US20230141603A1, “BENZODIAZEPINE DERIVATIVES AS GABA A GAMMA1 PAM” (Hoffmann-La Roche Inc., priority 2021, published 2023).

The test deals with T1, h-GABAA α5β2γ1 (Homo sapiens, UniProt P31644+Q8N1C3).
T1 construct: expressed in transfected cells; host or cells: HEK293F cells (ThermoFisher R79007), membranes
T1 sequence (P31644 32-462): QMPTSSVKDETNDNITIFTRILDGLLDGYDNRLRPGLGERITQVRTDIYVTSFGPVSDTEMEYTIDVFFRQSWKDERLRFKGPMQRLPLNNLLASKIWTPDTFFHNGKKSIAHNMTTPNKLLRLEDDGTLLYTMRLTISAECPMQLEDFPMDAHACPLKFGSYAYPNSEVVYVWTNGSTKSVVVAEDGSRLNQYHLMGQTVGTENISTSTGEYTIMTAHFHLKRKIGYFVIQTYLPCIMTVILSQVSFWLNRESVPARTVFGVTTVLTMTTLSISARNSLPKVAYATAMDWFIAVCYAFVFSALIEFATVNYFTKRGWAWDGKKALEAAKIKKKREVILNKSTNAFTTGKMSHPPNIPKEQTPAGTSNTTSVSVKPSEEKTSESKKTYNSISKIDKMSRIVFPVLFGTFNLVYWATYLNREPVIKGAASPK
T1 sequence (P47870 25-512 partner limits assumed): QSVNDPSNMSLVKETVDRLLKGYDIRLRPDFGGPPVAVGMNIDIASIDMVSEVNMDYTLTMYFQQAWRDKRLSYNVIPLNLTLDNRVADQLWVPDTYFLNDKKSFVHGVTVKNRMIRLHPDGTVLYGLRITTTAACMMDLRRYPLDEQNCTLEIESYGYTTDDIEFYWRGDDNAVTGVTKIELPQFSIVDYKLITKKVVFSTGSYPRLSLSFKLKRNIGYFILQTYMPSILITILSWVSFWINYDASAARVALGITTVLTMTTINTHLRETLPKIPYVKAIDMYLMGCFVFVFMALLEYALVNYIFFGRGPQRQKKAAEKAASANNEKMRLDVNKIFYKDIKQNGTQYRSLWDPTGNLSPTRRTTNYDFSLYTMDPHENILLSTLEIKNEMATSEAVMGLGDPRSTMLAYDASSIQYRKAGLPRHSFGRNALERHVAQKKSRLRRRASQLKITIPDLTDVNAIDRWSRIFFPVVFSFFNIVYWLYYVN
T1 sequence (Q8N1C3 36-465): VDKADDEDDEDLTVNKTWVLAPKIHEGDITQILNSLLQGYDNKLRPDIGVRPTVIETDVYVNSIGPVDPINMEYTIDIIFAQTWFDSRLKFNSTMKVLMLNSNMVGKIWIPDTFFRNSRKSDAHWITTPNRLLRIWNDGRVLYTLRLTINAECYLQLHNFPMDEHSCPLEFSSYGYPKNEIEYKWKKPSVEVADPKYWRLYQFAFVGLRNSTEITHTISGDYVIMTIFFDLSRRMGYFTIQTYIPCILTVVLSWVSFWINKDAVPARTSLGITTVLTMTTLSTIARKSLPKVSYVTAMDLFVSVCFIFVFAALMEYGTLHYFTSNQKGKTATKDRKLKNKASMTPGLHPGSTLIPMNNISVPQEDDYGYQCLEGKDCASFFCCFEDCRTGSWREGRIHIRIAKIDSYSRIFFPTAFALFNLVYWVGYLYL
The test is described as follows: Radioligand binding assay, [3H]RO7239181 competition, HEK293F membranes. The procedure: The affinity of compounds at GABAA γ1 subunit-containing receptors was measured by competition for [^3H]RO7239181 (67.3 Ci/mmol; Roche) binding to membranes from HEK293F cells (ThermoFisher R79007) expressing human (transiently transfected) receptors of composition […], α2β2γ1, α1β2γ1. For better protein expression of the α2 subunit-containing receptors, the 28 amino acid long signal peptide (Met1 to Ala28) of the human GABAA α2 subunit was substituted by the 31 amino acid long signal peptide (Met1 to Ser31) of human GABAA α5 subunit.
Harvested pellets from HEK293F cells expressing the different GABAA receptor subtypes were resuspended in Mannitol Buffer pH 7.2-7.4 (Mannitol 0.29M, Triethylamine 10 mM, Acetic acid 10 mM, EDTA 1 mM plus protease inhibitors (20 tablets Complete, Roche Diagnostics Cat. No. 05 056 489 001 per liter)), washed two times and then resuspended at 1:10 to 1:15 dilution in the same buffer. Cell disruption was performed by stirring the suspension in a Parr vessel #4637 at 435 psi for 15 minutes, and then the suspensions were centrifuged at 1000×g for 15 minutes at 4° C. (Beckman Avanti J-HC; rotor JS-4.2). The supernatant (S1) was transferred in a 21 Schott flask and the pellet (P1) was resuspended with Mannitol Buffer up to 175 ml. The resuspended pellet was transferred into a 250 ml Corning centrifugal beaker and centrifuged at 1500×g for 10 minutes at 4° C. (Beckman Avanti J-HC; rotor JS-4.2). The supernatant (S1) was then transferred in the 21 Schott flask and the pellet was discarded. The supernatants (S1) were centrifuged in 500 ml Beckman polypropylene centrifugal beaker at 15′000×g for 30 minutes at 4° C. (Beckman Avanti J-20 XP; rotor JLA-10.500). The pellet (P2) was resuspended with Mannitol Buffer 1:1 and frozen at −80° C. The supernatant (S2) was centrifuged in 100 ml Beckman polypropylene centrifugal tubes at 48000×g for 50 minutes at 4° C. (Beckman Avanti J-20 XP; rotor JA-18). The supernatant (S3) was discarded and the pellet (P3) was resuspended with 1:1 Mannitol Buffer. The P2 and P3 protein concentration was determined with the BIORAD Standard assay method with bovine serum albumin as standard and measured on the NANO-Drop 1000. The membrane suspension was aliquots (500 μl per tube) and stored at −80° C. until required. Membrane homogenates were resuspended and polytronised (Polytron PT1200E Kinematica AG) in Potassium Phosphate 10 mM, KCl 100 mM binding buffer at pH 7.4 to a final assay concentration determined with a previous experiment.
Radioligand binding assays were carried out in a volume of 200 μL (96-well plates) which contained 100 μL of cell membranes, [^3H]RO7239181 at a concentration of 1.5 nM (α5β2γ1) or 20-30 nM (α1β2γ1, α2β2γ1) and the test compound in the range of [0.3-10000]×10^−9 M. Nonspecific binding was defined by 10×10^−6 (α5β2γ1) and 30×10^−6 M RO7235136 and typically represented less than 5% (α5β2γ1) and less than 20% (α1β2γ1, α2β2γ1) of the total binding. Assays were incubated to equilibrium for 1 hour at 4° C. and then, membranes were filtered onto unifilter (96-well white microplate with bonded GF/C filters preincubated 20-50 minutes in 0.3% Polyethylenimine) with a Filtermate 196 harvester (Packard BioScience) and washed 4 times with cold Potassium Phosphate 10 mM pH 7.4, KCl 100 mM binding buffer. After drying, filter-retained radioactivity was detected by liquid scintillation counting. Ki values were calculated using Excel-Fit (Microsoft) and are the means of two determinations.
Usually Ki stands for the dissociation constant of the complex between target and ligand, obtained from inhibition or displacement. Higher therefore signals lower affinity. Compound `Cc1nnc2n1-c1ccc(Br)c(Cl)c1C(c1c(F)cccc1F)=NC2` [Example 1, 8-bromo-7-chloro-6-(2,6-difluorophenyl)-1-methyl-4H-[1,2,4]triazolo[4,3-a][1,4]benzodiazepine] registered a Ki of 1.1 nM.
`Fc1ccccc1C1=NCc2nnc(C3CC3)n2-c2ccc(Br)c(Cl)c21` [Example 2, 8-bromo-7-chloro-1-cyclopropyl-6-(2-fluorophenyl)-4H-[1,2,4]triazolo[4,3-a][1,4]benzodiazepine] gave a Ki of 5.7 nM.
The result for `Fc1ccccc1C1=NCc2nnc(-c3cccnn3)n2-c2ccc(Br)c(Cl)c21` [Example 3, 8-bromo-7-chloro-6-(2-fluorophenyl)-1-pyridazin-3-yl-4H-[1,2,4]triazolo[4,3-a][1,4]benzodiazepine] reads 1.5 nM.
The result for `Cc1nnc2n1-c1ccc(Cl)c(Cl)c1C(c1ccccc1F)=NC2` [Example 4, 7,8-dichloro-6-(2-fluorophenyl)-1-methyl-4H-[1,2,4]triazolo[4,3-a][1,4]benzodiazepine] reads 5.4 nM; that for `Cc1nnc2n1-c1ccc(Cl)c(Cl)c1C(c1c(F)cccc1F)=NC2` [Example 5, 7,8-dichloro-6-(2,6-difluorophenyl)-1-methyl-4H-[1,2,4]triazolo[4,3-a][1,4]benzodiazepine], 0.8 nM.
The value for `Cc1nnc2n1-c1ccc(C3CC3)c(Cl)c1C(c1c(F)cccc1F)=NC2` [Example 6, 7-chloro-8-cyclopropyl-6-(2,6-difluorophenyl)-1-methyl-4H-[1,2,4]triazolo[4,3-a][1,4]benzodiazepine] was 12.7 nM; that for `Fc1cccc(F)c1C1=NCc2nncn2-c2ccc(Br)c(Cl)c21` [Example 7, 8-bromo-7-chloro-6-(2,6-difluorophenyl)-4H-[1,2,4]triazolo[4,3-a][1,4]benzodiazepine] was 0.4 nM; that for `Fc1ccccc1C1=NCc2nncn2-c2ccc(Br)c(Cl)c21` [Example 8, 8-bromo-7-chloro-6-(2-fluorophenyl)-4H-[1,2,4]triazolo[4,3-a][1,4]benzodiazepine] was 2.3 nM.
`O=c1[nH]nc2n1-c1ccc(Cl)c(Cl)c1C(c1c(F)cccc1F)=NC2` [Example 9, 7,8-dichloro-6-(2,6-difluorophenyl)-2,4-dihydro-[1,2,4]triazolo[4,3-a][1,4]benzodiazepin-1-one]: the Ki amounted to 0.7 nM.
The result for `Fc1ccccc1C1=NCc2nnc(-c3cccnn3)n2-c2ccc(Cl)c(Cl)c21` [Example 10, 7,8-dichloro-6-(2-fluorophenyl)-1-pyridazin-3-yl-4H-[1,2,4]triazolo[4,3-a][1,4]benzodiazepine] reads 1.4 nM.
Compound `Fc1cccc(F)c1C1=NCc2nnc(C3CCOCC3)n2-c2ccc(Cl)c(Cl)c21` [Example 11, 7,8-dichloro-6-(2,6-difluorophenyl)-1-tetrahydropyran-4-yl-4H-[1,2,4]triazolo[4,3-a][1,4]benzodiazepine] registered a Ki of 8.3 nM.
In turn, `Fc1cccc(F)c1C1=NCc2nnc(-c3ccncn3)n2-c2ccc(Cl)c(Cl)c21` [Example 12, 7,8-dichloro-6-(2,6-difluorophenyl)-1-pyrimidin-4-yl-4H-[1,2,4]triazolo[4,3-a][1,4]benzodiazepine] returned a Ki of 2.3 nM.
The result for `O=c1[nH]nc2n1-c1ccc(Br)c(Cl)c1C(c1c(F)cccc1F)=NC2` [Example 13, 8-bromo-7-chloro-6-(2,6-difluorophenyl)-2,4-dihydro-[1,2,4]triazolo[4,3-a][1,4]benzodiazepin-1-one] reads 1.1 nM; that for `Fc1cccc(F)c1C1=NCc2nnc(-c3cccnn3)n2-c2ccc(Cl)c(Cl)c21` [Example 14, 7,8-dichloro-6-(2,6-difluorophenyl)-1-pyridazin-3-yl-4H-[1,2,4]triazolo[4,3-a][1,4]benzodiazepine], 0.8 nM; that for `Fc1cccc(F)c1C1=NCc2nncn2-c2ccc(Cl)c(Cl)c21` [Example 15, 7,8-dichloro-6-(2,6-difluorophenyl)-4H-[1,2,4]triazolo[4,3-a][1,4]benzodiazepine], 0.9 nM.
As for `Cc1ccc2c(c1Cl)C(c1c(F)cccc1F)=NCc1n[nH]c(=O)n1-2` [Example 16, 7-chloro-6-(2,6-difluorophenyl)-8-methyl-2,4-dihydro-[1,2,4]triazolo[4,3-a][1,4]benzodiazepin-1-one], the Ki stood at 1.8 nM.
Turning to `Cc1ccc2c(c1Cl)C(c1c(F)cccc1F)=NCc1nncn1-2` [Example 17, 7-chloro-6-(2,6-difluorophenyl)-8-methyl-4H-[1,2,4]triazolo[4,3-a][1,4]benzodiazepine], the affinity corresponds to a Ki of 1.3 nM.
The value for `Fc1ccccc1C1=NCc2nnc(-c3ccncn3)n2-c2ccc(Cl)c(Cl)c21` [Example 18, 7,8-dichloro-6-(2-fluorophenyl)-1-pyrimidin-4-yl-4H-[1,2,4]triazolo[4,3-a][1,4]benzodiazepine] was 2.6 nM; that for `COCCc1nnc2n1-c1ccc(Cl)c(Cl)c1C(c1c(F)cccc1F)=NC2` [Example 19, 7,8-dichloro-6-(2,6-difluorophenyl)-1-(2-methoxyethyl)-4H-[1,2,4]triazolo[4,3-a][1,4]benzodiazepine] was 2.5 nM.
On to `Cc1ccc2c(c1Cl)C(c1c(F)cccc1F)=NCc1nnc(C)n1-2` [Example 20, 7-chloro-6-(2,6-difluorophenyl)-1,8-dimethyl-4H-[1,2,4]triazolo[4,3-a][1,4]benzodiazepine], for which affinity was put at a Ki of 2.9 nM.
`CC(F)(F)c1ccc2c(c1Cl)C(c1c(F)cccc1F)=NCc1nncn1-2` [Example 21, 7-chloro-8-(1,1-difluoroethyl)-6-(2,6-difluorophenyl)-4H-[1,2,4]triazolo[4,3-a][1,4]benzodiazepine] returned a Ki of 4.6 nM.
